Our source for the TGI values is PubChem BioAssay (NCI).

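Method: 48-hour compound exposure of cells in 96-well plates, five concentrations, linear interpolation of endpoints. TGI: total growth inhibition.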

Assay in all cases: inhibition of tumour cell growth, NCI panel, 48 h
For experiment [1], the system named is KM12 colon.
For experiment [2], the system named is NCI/ADR-RES ovarian.
Experiment [3] relates to SK-MEL-2 melanoma.
The test system of experiment [4] is UACC-257 melanoma.
The test system of experiment [5] is HOP-92 NSCLC.

As for `O=[N+]([O-])C1(C2([N+](=O)[O-])CCCC2)CCCC1`, the TGI in experiment [1], in experiment [2], in experiment [3] and in experiment [4] was above 100 µM each time.

For `N#Cc1c(NC(=S)NCc2ccccc2)sc2c1CCN(N1CCc3c(sc(NC(=S)NCc4ccccc4)c3C#N)C1)C2`, the TGI in experiment [5], in experiment [1], in experiment [2], in experiment [3] and in experiment [4] was above 100 µM each time.

As to `COc1ccc(NC2=NCCO2)c2ccccc12`, the TGI in experiment [1], in experiment [2] and in experiment [3] was above 10 µM each time.

In the case of `Cc1cn(C2CC(N=[N+]=[N-])C(CO[Si](C)(C)C(C)(C)C)O2)c(=O)[nH]c1=O` (stereo not drawn), the TGI in experiment [1] came out at 32.5 µM; in experiment [2], 36 µM; in experiment [3], 33.8 µM; in experiment [4] it was 42 µM.

As to `Cc1ccc(S(=O)(=O)N/N=C2\C=C[C@]3(CC2)C(=O)N(C)c2ccccc23)cc1`, the TGI in experiment [5], in experiment [1], in experiment [2], in experiment [3] and in experiment [4] was above 100 µM throughout.

For the molecule `C=CCn1c(=O)c(C)cn(/C(=C/C(=O)OCC)C(=O)OCC)c1=O`, the TGI is 17.2 µM in experiment [5]; 36 µM in experiment [1]; 55.5 µM in experiment [2]; 53.6 µM in experiment [3]; 55.5 µM in experiment [4].

For `C[C@@H]1OC(=O)C[C@H]2CC(=O)N(CCc3cn(S(=O)(=O)C(F)(F)F)c4ccccc34)C[C@@H]21`, the TGI in experiment [5], in experiment [1], in experiment [2], in experiment [3] and in experiment [4] was above 100 µM each time.

Turning to `CC1=C(C(=O)OC(C)C)C(c2ccccc2[N+](=O)[O-])C(C(=O)OC(CO[N+](=O)[O-])CO[N+](=O)[O-])=C(C)N1` (stereo not drawn), the TGI in experiment [1] was 22.8 µM; in experiment [2], 12.2 µM; in experiment [3], 9.64 µM; in experiment [4], 15.7 µM.

Take `Cn1c(=O)n(CC(Br)CBr)c(=O)n(CC(Br)CBr)c1=O` (stereo not drawn): the TGI in experiment [5], in experiment [1], in experiment [2], in experiment [3] and in experiment [4] was above 100 µM throughout.

Regarding `CO[C@H]1O[C@@H]2CO[C@@H](c3ccccc3)O[C@H]2C[C@]12CCC/C=C\CO2`, the TGI is 28.4 µM in experiment [5]; above 75 µM in experiment [1]; 73.6 µM in experiment [2]; 41.4 µM in experiment [3]; above 75 µM in experiment [4].

For the molecule `COCN1C(=O)[C@@H]2CCCN2C(=O)c2cc([N+](=O)[O-])ccc21`, the TGI in experiment [1], in experiment [2], in experiment [3] and in experiment [4] was above 100 µM throughout.

Consider `O=C(/C=C/c1ccc(Cl)c(Cl)c1)Oc1ccc(/C=C2\CCCCC2=O)cc1`, for which the TGI in experiment [5], in experiment [1], in experiment [2], in experiment [3] and in experiment [4] was above 100 µM each time.

Regarding `NC(=O)N(O)c1cccc(Br)c1`, the TGI in experiment [5], in experiment [1], in experiment [2], in experiment [3] and in experiment [4] was above 100 µM throughout.

For `c1ccc(-c2cc(-c3cc(-c4ccccc4)n(-c4ccccc4)n3)nn2-c2ccccc2)cc1`, the TGI in experiment [1], in experiment [2], in experiment [3] and in experiment [4] was above 100 µM in each case.

For `CC1(C)CC(=O)c2c(nc3ccc4ccccc4c3c2-c2ccc(NC(=O)CCCCC(=O)Nc3ccc(-c4c5c(nc6ccc7ccccc7c46)CC(C)(C)CC5=O)cc3)cc2)C1`, the TGI in experiment [5], in experiment [1], in experiment [2], in experiment [3] and in experiment [4] was above 100 µM in each case.

Take `O=C(/C=C/c1ccc(O)c(O)c1)OCCOC(=O)/C=C/c1ccc(O)c(O)c1`: the TGI in experiment [5] is above 100 µM; in experiment [1], 41.8 µM; in experiment [2], above 100 µM; in experiment [3] it was 45.8 µM; in experiment [4], 44.5 µM.

Turning to `COC/C=C\[C@@]1(O)CCCC[C@@H]1CC(OC)OC`, the TGI in experiment [5], in experiment [1], in experiment [2], in experiment [3] and in experiment [4] was above 100 µM in each case.

With `S=C(Nc1ccc(Br)cn1)NC12CC3CC(CC(C3)C1)C2`, the TGI in experiment [5] is 26.4 µM; in experiment [1], above 100 µM; in experiment [2], 55.7 µM; in experiment [3], 51.7 µM; in experiment [4] it was above 100 µM.

On to `NNC(=O)c1n[nH]nc1SSc1n[nH]nc1C(=O)NN`, for which the TGI in experiment [5], in experiment [1], in experiment [2], in experiment [3] and in experiment [4] was above 100 µM each time.

`Nc1c(C(=O)c2ccccc2)[nH]c(NCc2ccccc2)c1C(=S)Nc1ccccc1`: the TGI in experiment [5], in experiment [1], in experiment [2], in experiment [3] and in experiment [4] was above 100 µM in each case.

As for `CC1OC(=O)c2ccccc2NC1=O` (stereo not drawn), the TGI in experiment [5], in experiment [1], in experiment [2], in experiment [3] and in experiment [4] was above 100 µM throughout.

Regarding `N#Cc1c(C#N)c(SSc2c(C#N)c(C#N)c(N)n2-c2ccccc2)n(-c2ccccc2)c1N`, the TGI in experiment [5] is 3.71 µM; in experiment [1], above 63.3 µM; in experiment [2], above 71.4 µM; in experiment [3], 47.7 µM; in experiment [4] it was above 69.8 µM.

Take `O/N=C\c1cc(O)c(O)c(/C=N/O)c1`: the TGI in experiment [5], in experiment [1], in experiment [2], in experiment [3] and in experiment [4] was above 100 µM in each case.
